Test results taken from US12357611B2, “Sulcardine administration for treatment of acute atrial fibrillation” (HUYABIO International, LLC, priority 2018, dated 2025).
Counter-ions that a name gives are not always drawn.

What was measured:
[1] = Chen et al.; cited from earlier work
[2] = Phase 1 single ascending iv dose trial: pharmacokinetics (plasma sulcardine); format: in vivo, human; conditions: iv infusion, various dosages, FIG. 1
Protocol: (§1) HBI-3000 (sulcardine sulfate) was administered to human subjects according to the protocol provided in ClinicalTrials.gov Identifier: NCT03397641. That protocol is incorporated herein by reference in its entirety.
(§2) Objective: Provided herein are the safety, tolerability, pharmacokinetics and electrocardiogram (ECG) results of a Phase 1 single ascending dose trial of intravenous (iv) HBI-3000 in healthy subjects.
(§3) Methods: […] subjects were randomized to 6 cohorts of 8 subjects to receive 1 of 5 single ascending iv doses (Table 2) of HBI-3000 or placebo (6:2), with 2 cohorts receiving the 600 mg dose. Doses of RBI-3000 ranged from 20 mg (Cohort A), 60 mg (Cohort B), 180 mg (Cohort C), 360 mg (Cohort D), to 600 mg (Cohort E and F). Drug was a lyophilized powder, reconstituted to […] then diluted in saline for delivery via intravenous infusion as a 50 mL solution over 30 minutes.

healthy subjects [3] = assay: Phase 1 single ascending iv dose trial: continuous 12-lead Holter ECG, baseline and placebo subtracted (ΔΔ) ECG intervals at Cmax; format: in vivo, human; conditions: single iv doses 20 to 600 mg
Protocol: as §1, §2, §3
Continuous 12-lead Holter ECG data were recorded at baseline and 11 time points thereafter. Mean baseline and placebo subtracted (ΔΔ) ECG intervals (QTcF, HR, PR, QRS, and P-wave duration [PDur]) and T-wave segments (J to T peak [JTp] and T peak to T end [TpTe]) were calculated at Cmax for each dose.
Table 2 summarizes ECG data at Cmax for each dose, as predicted by mixed-effects modeling. […] The increases in QRS and PDur are consistent with block of INa-Peak. […]

healthy subjects [4] = assay: Phase 1 single ascending iv dose trial: safety and tolerability; format: in vivo; conditions: single iv doses 20 to 600 mg
Protocol: as §1, §2, §3

COc1ccc(S(=O)(=O)NCc2cc(CN3CCCC3)c(O)c(CN3CCCC3)c2)cc1 [sulcardine, N-[4-hydroxy-3,5-bis(1-pyrrolidinylmethyl)benzyl]-4-methoxybenzenesulfonamide]
half-life for oral administration [1]: about 16 hours
removal from plasma after Cmax [2]: largely removed or isolated from plasma at 1.0 hours

COc1ccc(S(=O)(=O)NCc2cc(CN3CCCC3)c(O)c(CN3CCCC3)c2)cc1 [HBI-3000, sulcardine sulfate]
dose dependence of ECG parameter changes (healthy subjects [3]): dose-proportional changes in all ECG parameters
tolerability, dose limiting adverse events or arrhythmias (healthy subjects [4]): well tolerated with no dose limiting adverse events or arrhythmias observed
removal from plasma after Cmax ([2]; listed as sulcardine sulfate): quickly removed or isolated from plasma
